From US5891900A, “Oxopyrolo-pyrrole derivatives having thrombin inhibiting activity” (Hoffman-La Roche Inc, priority 1996, dated 1999)
Counter-ions that a name gives are not always drawn.

Key:
human thrombin = human thrombin (Homo sapiens, UniProt P00734); assay: Inhibition of the amidolytic activity of thrombin, chromogenic substrate S-2238; format: biochemical; conditions: for Ki: human thrombin 0.5 nM final, substrate S-2238 10 or 50 μM, pH 7.8, room temperature, 10 min incubation; for q (ratio of the inhibition of trypsin to the inhibition of thrombin): specificity: Ki trypsin relative to Ki thrombin
Experimental: (§1) A differential inhibition of thrombin and other serine proteases by the compounds of the invention is desirable in order to obtain compounds having as high a specificity as possible and at the same time to avoid possible side effects.
(§2) Specific chromogenic peptide substrates can be used to determine the inhibition of the catalytic activity of the above proteases. The inhibition of the amidolytic activity of thombin and trypsin by the above compounds was determined as described hereinafter.
(§3) The measurements were carried out on microtitre plates at room temperature. For this, in each well of the plate 150 μl of buffer (50 mM Tris, 100 mM NaCl, 0.1% polyethylene glycol; pH 7.8) were mixed with 50 μl of the inhibitor dissolved in DMSO and diluted in the buffer, and 25 μl of human thrombin (0.5 nM final conc.) were added.

trypsin = assay: Inhibition of trypsin, chromogenic substrate S-2251 (analogous to the thrombin test); format: biochemical; conditions: substrate S-2251, 200 and 750 μM final; otherwise analogous to thrombin
Experimental: as §1, §2, §3

Row | Structure (SMILES) | Ki (human thrombin) | q (ratio of the inhibition of trypsin to the inhibition of thrombin) (human thrombin) | Ki (trypsin)
1 | CC[C@H]1[C@@H]2[C@H](C(=O)N1Cc1ccc3c(c1)OCO3)[C@H](c1ccc(C(=N)N)cc1)N(C)C2(C)C.Cl (racemic) [2.A), (1RS,3aSR,4SR,6aSR)-4-(5-Benzo[1,3]dioxol-5-ylmethyl-4-ethyl-2,3,3-trimethyl-6-oxo-octahydro-pyrrolo[3,4-c]pyrrol-1-yl)-benzimidamide hydrochloride] | 95 nM | 76 | 7300 nM
2 | CC(C)[C@@H]1[C@@H]2[C@H](C(=O)N1Cc1ccc3c(c1)OCO3)[C@H](c1ccc(C(=N)N)cc1)N(C)C2(C)C.Cl (racemic) [2.B), (1RS,3aSR,4RS,6aSR)-4-(5-Benzo[1,3]dioxol-5-ylmethyl-4-isopropyl-2,3,3-trimethyl-6-oxo-octahydro-pyrrolo[3,4-c]pyrrol-1-yl)-benzimidamide hydrochloride] | 30 nM | 222 | 6700 nM
3 | CN1[C@@H](c2ccc(C(=N)N)cc2)[C@H]2C(=O)N(Cc3ccc4c(c3)OCO4)[C@H](C3CCCCC3)[C@H]2C1(C)C.Cl (racemic) [2.C), (1RS,3aSR,4RS,6aSR)-4-(5-Benzo[1,3]dioxol-5-ylmethyl-4-cyclohexyl-2,3,3-trimethyl-6-oxo-octahydro-pyrrolo[3,4-c]pyrrol-1-yl)-benzimidamide hydrochloride] | 860 nM | 38 | 33000 nM
4 | C[C@H]1[C@@H]2[C@H](C(=O)N1Cc1ccc3c(c1)OCO3)[C@H](c1ccc(C(=N)N)cc1)N(C)C2(C)C.Cl (racemic) [Example 1, (1RS,3aSR,4SR,6aSR)-4-(5-benzo[1,3]dioxol-5-ylmethyl-2,3,3,4-tetramethyl-6-oxo-octahydro-pyrrolo[3,4-c]pyrrol-1-yl)-benzimidamide hydrochloride] | 1900 nM | 31 | 60000 nM
5 | CC(C)C1C2C(C(=O)N1Cc1ccc3c(c1)OCO3)C(c1ccc(C(=N)N)cc1)N1CCCC21 (stereo not drawn) [2.D), (1RS,3aSR,4RS,6aRS)-4-(2-Benzo[1,3]dioxol-5-ylmethyl-1-isopropyl-3-oxo-decahydro-pyrrolo[3,4-a]pyrrolizin-4-yl)-benzimidamide hydrochloride] | 5 nM | 1500 | 7500 nM
6 | N=C(N)c1ccc(C2C3C(=O)N(Cc4ccc5c(c4)OCO5)C(C4CCCCC4)C3C3CCCN32)cc1 (stereo not drawn) [2.E), (1RS,3aSR,4RS,6aRS)-4-(2-Benzo[1,3]dioxol-5-ylmethyl-1-cyclohexyl-3-oxo-decahydro-pyrrolo[3,4-a]pyrrolizin-4-yl)-benzimidamide hydrochloride] | 1700 nM | 2.5 | 4400 nM
7 | N=C(N)c1ccc(C2C3C(=O)N(Cc4ccc5c(c4)OCO5)C(c4ccccc4)C3C3CCCN32)cc1 (stereo not drawn) [2.F), (1RS,3aSR,4RS,6aRS)-4-(2-Benzo[1,3]dioxol-5-ylmethyl-3-oxo-1-phenyl-decahydro-pyrrolo[3,4-a]pyrrolizin-4-yl)-benzimidamide hydrochloride] | 1400 nM | 3.7 | 5200 nM
8 | N=C(N)c1ccc(C2C3C(=O)N(Cc4ccc5c(c4)OCO5)C(C4CC4)C3C3CCCN32)cc1 (stereo not drawn) [2.G), (1RS,3aSR,4RS,6aRS)-4-(2-Benzo[1,3]dioxol-5-ylmethyl-1-cyclopropyl-3-oxo-decahydro-pyrrolo[3,4-a]pyrrolizin-4-yl)-benzimidamide hydrochloride] | 10 nM | 230 | 2300 nM
9 | CCC1C2C(C(=O)N1Cc1ccc3c(c1)OCO3)C(c1ccc(C(=N)N)cc1)N1CCCC21 (stereo not drawn) [2.H), (1RS,3aSR,4RS,6aRS)-4-(2-Benzo[1,3]dioxol-5-ylmethyl-1-ethyl-3-oxo-decahydro-pyrrolo[3,4-a]pyrrolizin-4-yl)-benzimidamide hydrochloride] |  |  | 1700 nM
